Source: patent publication US10954252B1, “Inhibitors of human immunodeficiency virus replication” (ViiV HEALTHCARE UK (NO.5) LIMITED, priority 2017, dated 2021)

What was measured:
Format in all cases: cell-based
[1] = test system: recombinant NL4-3 virus (nef section replaced with Renilla luciferase gene) in MT-2 cells; test: HIV cell culture assay (antiviral activity, luciferase readout); conditions: MT-2 cells infected for 4-5 days with recombinant NL4-3 luciferase virus
Outline: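 NL4-3 reporter virus carrying Renilla luciferase in place of part of nef, produced in 293T cells, was used to infect MT-2 cells for 4-5 days with serial compound dilutions. Luciferase activity was read with a live-cell substrate; EC50 derived from the median effect equation.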

[2] = test system: uninfected MT2 cells; test: Compound cytotoxicity, XTT-based colorimetric assay
Outline: (§1)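 CC50 from uninfected MT2 cells run under the antiviral-assay protocol without virus. Viability read on day 4 by XTT colorimetric assay.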

[3] = as above; conditions: human, uninfected MT2 cells, Table 1, day 4, XTT
Outline: as §1

SMILES	EC50 ([1]; Table 1)	EC50 ([1]; Table 1a)	CC50 ([2]; Table 1a, day 4, XTT)	further results
Cn1nc(NS(C)(=O)=O)c2c(Cl)ccc(-c3c(C(Cc4cc(F)cc(F)c4)NC(=O)Cn4nc(C(F)F)c5c4C(F)(F)[C@@H]4C[C@H]54)ncc4[nH]cnc34)c21 (single isomer, unassigned) [Example 7.4]	300 nM			CC50 ([2]; Table 1, day 4, XTT): > 10000 nM
COc1cc(F)c2c(=O)n(-c3ccc(Cl)c4c(NS(C)(=O)=O)nn(C)c34)c([C@H](Cc3cc(F)cc(F)c3)NC(=O)Cn3ccc(C4CC4)n3)nc2c1 (single isomer, unassigned) [Example 190]		42.2 nM	> 1000 nM	
Cn1nc(NS(C)(=O)=O)c2c(Cl)ccc(-n3c([C@H](Cc4cc(F)cc(F)c4)NC(=O)Cn4nc(C(F)F)c5c4C(F)(F)[C@@H]4C[C@H]54)nc4c(F)ccc(F)c4c3=O)c21 (single isomer, unassigned) [Example 148]		0.13 nM	> 1000 nM	
Cc1nc2nc(C(Cc3cc(F)cc(F)c3)NC(=O)Cn3nc(C(F)F)c4c3CCC4)c(-c3ccc(Cl)c4c(NS(C)(=O)=O)nn(C)c34)cc2s1 (single isomer, unassigned) [Example 2.4, N-(1-(6-(4-chloro-1-methyl-3-(methylsulfonamido)-1H-indazol-7-yl)-2-methylthiazolo[4,5-b]pyridin-5-yl)-2-(3,5-difluorophenyl)ethyl)-2-(3-(difluoromethyl)-5,6-dihydrocyclopenta[c]pyrazol-1(4H)-yl)acetamide]	690 nM			CC50 ([2]; Table 1, day 4, XTT): > 10000 nM
CS(=O)(=O)Nc1nn(CC(F)(F)F)c2c(-c3cc4[nH]ncc4nc3[C@H](Cc3cc(F)cc(F)c3)NC(=O)Cn3nc(C(F)F)c4c3C(F)(F)[C@@H]3C[C@H]43)ccc(Cl)c12 (single isomer, unassigned) [Example 95]		0.094 nM	> 1000 nM	
Cn1nc(NS(C)(=O)=O)c2c(Cl)ccc(-n3c([C@H](Cc4cc(F)cc(F)c4)NC(=O)Cn4nc(C(F)F)c5c4C(F)(F)[C@@H]4C[C@H]54)nc4cc(CS(C)(=O)=O)ccc4c3=O)c21 (mixture of isomers) [Example 202, N—((S)-1-(3-(4-chloro-1-methyl-3-(methylsulfonamido)-1H-indazol-7-yl)-7-((methylsulfonyl)methyl)-4-oxo-3,4-dihydroquinazolin-2-yl)-2-(3,5-difluorophenyl)ethyl)-2-((3bS,4aR)-3-(difluoromethyl)-5,5-difluoro-3b,4,4a,5-tetrahydro-1H-cyclopropa[3,4]cyclopenta[1,2-c]pyrazol-1-yl)acetamide]		0.3 nM	> 1000 nM	
Cn1nc(NS(C)(=O)=O)c2c(Cl)ccc(-n3c([C@H](Cc4cc(F)cc(F)c4)NC(=O)Cn4nc(C(F)F)c5c4C(F)(F)[C@@H]4C[C@H]54)nc4cc(C5CC5)ccc4c3=O)c21 (mixture of isomers) [Example 198, N—((S)-1-(3-(4-chloro-1-methyl-3-(methylsulfonamido)-1H-indazol-7-yl)-7-cyclopropyl-4-oxo-3,4-dihydroquinazolin-2-yl)-2-(3,5-difluorophenyl)ethyl)-2-((3bS,4aR)-3-(difluoromethyl)-5,5-difluoro-3b,4,4a,5-tetrahydro-1H-cyclopropa[3,4]cyclopenta[1,2-c]pyrazol-1-yl)acetamide]		0.15 nM	> 1000 nM	
CC(C)c1ccc(-c2cc3[nH]ccc3nc2[C@H](Cc2cc(F)cc(F)c2)NC(=O)Cn2nc(C(F)F)c3c2C(F)(F)[C@@H]2C[C@H]32)cn1 [Example 82, 2-((3bS,4aR)-3-(difluoromethyl)-5,5-difluoro-3b,4,4a,5-tetrahydro-1H-cyclopropa[3,4]cyclopenta[1,2-c]pyrazol-1-yl)-N—((S)-2-(3,5-difluorophenyl)-1-(6-(6-isopropylpyridin-3-yl)-1H-pyrrolo[3,2-b]pyridin-5-yl)ethyl)acetamide]			6310 nM	EC50 ([1]; Renilla, NL43, Table 1a): 3.81 nM
Cn1nc(NS(C)(=O)=O)c2c(Cl)ccc(-n3c([C@H](Cc4cc(F)cc(F)c4)NC(=O)Cn4ccc(C5CC5)n4)nc4cccc(F)c4c3=O)c21 (single isomer, unassigned) [Example 184]		0.35 nM	> 1000 nM	
Cn1nc(NS(C)(=O)=O)c2c(Cl)ccc(-c3cc4[nH]cnc4nc3C(Cc3cc(F)cc(F)c3)NC(=O)Cn3nc(C(F)F)c4c3C(F)(F)[C@@H]3C[C@H]43)c21 (single isomer, unassigned) [Example 4.2]	1 nM			CC50 ([2]; Table 1, day 4, XTT): > 10000 nM
Cn1nc(NS(C)(=O)=O)c2c(Cl)ccc(-n3c([C@H](Cc4cc(F)cc(F)c4)NC(=O)Cn4nc(C(F)F)c5c4C(F)(F)[C@@H]4C[C@H]54)nc4c(Cl)cccc4c3=O)c21 (single isomer, unassigned) [Example 102]		1.04 nM	> 1000 nM	
Cn1nc(NS(C)(=O)=O)c2c(Cl)ccc(-c3cc4cn[nH]c4nc3C(Cc3cc(F)cc(F)c3)NC(=O)Cn3nc(C(F)F)c4c3C(F)(F)[C@@H]3C[C@H]43)c21 (single isomer, unassigned) [Example 6.2]	4.3 nM			CC50 ([2]; Table 1, day 4, XTT): > 10000 nM
COc1cc(OC)c2c(=O)n(-c3ccc(Cl)c4c(NS(C)(=O)=O)nn(C)c34)c([C@H](Cc3cc(F)cc(F)c3)NC(=O)Cn3nc(C(F)F)c4c3C(F)(F)[C@@H]3C[C@H]43)nc2c1 (single isomer, unassigned) [Example 182]		0.061 nM	> 1000 nM	
Cn1nc(NS(C)(=O)=O)c2c(Cl)ccc(-c3cc4scnc4nc3C(Cc3cc(F)cc(F)c3)NC(=O)Cn3nc(C(F)F)c4c3C(F)(F)[C@@H]3C[C@H]43)c21 (single isomer, unassigned) [Example 1.5]	1150 nM			CC50 ([2]; Table 1, day 4, XTT): > 10000 nM
Cn1nc(NS(C)(=O)=O)c2c(Cl)ccc(-n3c([C@H](Cc4cc(F)cc(F)c4)NC(=O)Cn4nc(C(F)F)c5c4C(F)(F)[C@@H]4C[C@H]54)nc4cc(Cl)cc(Cl)c4c3=O)c21 (single isomer, unassigned) [Example 180]		87.4 nM	> 1000 nM	
Cn1nc(NS(C)(=O)=O)c2c(Cl)ccc(-n3c([C@H](Cc4cc(F)cc(F)c4)NC(=O)Cn4ccc(C5CC5)n4)nc4cc(CS(C)(=O)=O)ccc4c3=O)c21 (single isomer, unassigned) [Example 206]			> 1000 nM	EC50 ([1]; Renilla, NL43, Table 1a): 0.64 nM
Cn1nc(NS(C)(=O)=O)c2c(Cl)ccc(-c3cc4cc[nH]c4nc3C(Cc3cc(F)cc(F)c3)NC(=O)Cn3nc(C(F)F)c4c3C(F)(F)[C@@H]3C[C@H]43)c21 (single isomer, unassigned) [Example 86]		1100 nM	> 10000 nM	
COc1ccc2nc([C@H](Cc3cc(F)cc(F)c3)NC(=O)Cn3nc(C(F)F)c4c3C(F)(F)[C@@H]3C[C@H]43)n(-c3ccc(Cl)c4c(NS(C)(=O)=O)nn(C)c34)c(=O)c2c1 (single isomer, unassigned) [Example 174]		0.096 nM	> 1000 nM	
CS(=O)(=O)Nc1nn(CC(F)F)c2c(-c3cc4[nH]ncc4nc3[C@H](Cc3cc(F)cc(F)c3)NC(=O)Cn3nc(C(F)F)c4c3C(F)(F)[C@@H]3C[C@H]43)ccc(Cl)c12 (single isomer, unassigned) [Example 93]		0.099 nM	> 10000 nM	
Cn1nc(NS(C)(=O)=O)c2c(Cl)ccc(-n3c([C@H](Cc4cc(F)cc(F)c4)NC(=O)Cn4ccc(C5CC5)n4)nc4c(F)ccc(F)c4c3=O)c21 (single isomer, unassigned) [Example 146]		0.62 nM	> 1000 nM	
COc1cccc2c(=O)n(-c3ccc(Cl)c4c(NS(C)(=O)=O)nn(C)c34)c([C@H](Cc3cc(F)cc(F)c3)NC(=O)Cn3nc(C(F)F)c4c3C(F)(F)[C@@H]3C[C@H]43)nc12 (single isomer, unassigned) [Example 104]			> 1000 nM	EC50 ([1]; Renilla, NL43, Table 1a): 0.064 nM
Cn1nc(NS(C)(=O)=O)c2c(Cl)ccc(-c3c(C(Cc4cc(F)cc(F)c4)NC(=O)Cn4nc(C(F)F)c5c4C(F)(F)[C@@H]4C[C@H]54)ncc4[nH]cnc34)c21 (single isomer, unassigned) [Example 7.6]	8.1 nM			CC50 ([2]; Table 1, day 4, XTT): > 10000 nM
Cc1cccc2c(=O)n(-c3ccc(Cl)c4c(NS(C)(=O)=O)nn(C)c34)c([C@H](Cc3cc(F)cc(F)c3)NC(=O)Cn3nc(C(F)F)c4c3C(F)(F)[C@@H]3C[C@H]43)nc12 (single isomer, unassigned) [Example 98]		0.747 nM	> 1000 nM	
Cn1nc(NS(C)(=O)=O)c2c(Cl)ccc(-c3cc4[nH]ccc4nc3C(Cc3cc(F)cc(F)c3)NC(=O)Cn3nc(C(F)F)c4c3C(F)(F)[C@@H]3C[C@H]43)c21 (single isomer, unassigned) [Example 5.4]	0.2 nM			CC50 ([2]; Table 1, day 4, XTT): > 10000 nM
Cn1nc(NS(C)(=O)=O)c2c(Cl)ccc(-c3cc4[nH]ccc4nc3C(Cc3cc(F)cc(F)c3)NC(=O)Cn3nc(C(F)F)c4c3C(F)(F)[C@@H]3C[C@H]43)c21 (single isomer, unassigned) [Example 5.3]	0.2 nM			CC50 ([2]; Table 1, day 4, XTT): > 10000 nM
NC(=O)c1cc(-c2cc3[nH]ncc3nc2[C@H](Cc2cc(F)cc(F)c2)NC(=O)Cn2nc(C(F)F)c3c2C(F)(F)[C@@H]2C[C@H]32)ccc1Cl [Example 10.3, 2-Chloro-5-(5-((S)-1-(2-((3bS,4aR)-3-(difluoromethyl)-5,5-difluoro-3b,4,4a,5-tetrahydro-1H-cyclopropa[3,4]cyclopenta[1,2-c]pyrazol-1-yl)acetamido)-2-(3,5-difluorophenyl)ethyl)-1H-pyrazolo[4,3-b]pyridin-6-yl)benzamide]				EC50 ([1]; Renilla, NL43, Table 1): 84 nM; CC50 at 4 days [3]: > 10000 nM
Cn1nc(NS(C)(=O)=O)c2c(Cl)ccc(-c3cc4[nH]cnc4nc3C(Cc3cc(F)cc(F)c3)NC(=O)Cn3nc(C(F)F)c4c3C(F)(F)[C@@H]3C[C@H]43)c21 (single isomer, unassigned) [Example 4.1]	230 nM			CC50 at 4 days [3]: > 10000 nM
